According to ChEMBL document CHEMBL4321797, “New Approaches to Cancer Therapy: Combining Fatty Acid Amide Hydrolase (FAAH) Inhibition with Peroxisome Proliferator-Activated Receptors (PPARs) Activation” (J Med Chem, 2019):

How the values were obtained:
[1] = biological target: T1, Fatty-acid amide hydrolase 1 (Homo sapiens, UniProt O00519); experiment: Inhibition of recombinant human C-terminal FLAG-tagged FAAH expressed in HEK293T cells preincubated for 4 hrs followed by addition of FP-TAMRA probe and measured after 20 mins by SDS-PAGE based fluorescence assay; type: cell-based
T1 sequence (O00519 whole entry): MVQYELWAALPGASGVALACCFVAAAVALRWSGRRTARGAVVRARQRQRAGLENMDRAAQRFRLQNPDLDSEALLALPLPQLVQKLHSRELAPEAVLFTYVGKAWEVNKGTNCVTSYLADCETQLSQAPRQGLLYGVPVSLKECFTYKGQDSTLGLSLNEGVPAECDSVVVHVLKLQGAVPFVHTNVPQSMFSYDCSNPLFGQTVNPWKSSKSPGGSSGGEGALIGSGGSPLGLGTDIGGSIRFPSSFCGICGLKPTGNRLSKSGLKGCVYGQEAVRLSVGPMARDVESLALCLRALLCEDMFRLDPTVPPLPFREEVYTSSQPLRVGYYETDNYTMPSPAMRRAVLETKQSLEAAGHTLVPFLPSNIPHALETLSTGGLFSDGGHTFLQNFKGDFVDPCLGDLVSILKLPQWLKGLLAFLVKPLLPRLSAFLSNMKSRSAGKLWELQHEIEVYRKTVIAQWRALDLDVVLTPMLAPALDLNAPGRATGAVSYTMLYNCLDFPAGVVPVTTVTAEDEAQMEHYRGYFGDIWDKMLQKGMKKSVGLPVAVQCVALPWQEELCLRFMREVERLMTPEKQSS

[2] = biological target: T1, Fatty-acid amide hydrolase 1; experiment: Inhibition of FAAH (unknown origin)

| SMILES | IC50 [1] [µM] | IC50 [2] [µM] |
| --- | --- | --- |
| CN(C(=O)n1cnc(-c2ccc[n+]([O-])c2)c1)C1CCCCC1 | 0.049 |  |
| CCCCC/C=C\C/C=C\C/C=C\C/C=C\CCCC(=O)NCCc1c[nH]c2ccc(O)cc12 |  | 5.6 |
